Experimental data taken from US20030191342A1, “Process for the production of crystals of a benzoic acid derivative” (priority 2000, published 2003).

Experiments:
[1] = Grain size distribution by laser-type grain size analyzer (Microtrac FRA); type: physicochemical; conditions: crystals dispersed in aqueous Soprophor FL; for Average grain size 10%: 10% point of grain size distribution; for Average grain size 50%: 50% point of grain size distribution; for Average grain size 90%: 90% point of grain size distribution
Method: Grain size distributions of the crystals obtained in Example 1 and Comparative Example 1 were measured. A laser-type grain size analyzer (Microtrac FRA) was used. A 1% aqueous solution of Soprophor FL (3 ml, Rhone-Poulenc) was added with water (15 ml), and an appropriate amount of the crystals obtained in Example 1 or Comparative Example 1 were dispersed in the mixture to obtain a sample dispersion.

[2] = background art statement, no method given; cited from earlier work

| SMILES | Average grain size 10% [1] | Average grain size 50% [1] | Average grain size 90% [1] | stability of crystalline form against physical impact [2] | stability against heat, temperature, light and the like [2] |
| --- | --- | --- | --- | --- | --- |
| CC1(C)CCC(C)(C)c2cc(NC(=O)c3ccc(C(=O)O)cc3)ccc21 [Ethanol/water, 4-[(5,6,7,8-Tetrahydro-5,5,8,8-tetramethyl-2-naphthalenyl)carbamoyl]benzoic acid] | 16.38 μm | 39.74 μm | 86.92 μm | – | – |
| CC1(C)CCC(C)(C)c2cc(NC(=O)c3ccc(C(=O)O)cc3)ccc21 [Methanol/water, 4-[(5,6,7,8-Tetrahydro-5,5,8,8-tetramethyl-2-naphthalenyl)carbamoyl]benzoic acid, reference compound] | 42.74 μm | 96.29 μm | 268.75 μm | – | – |
| CC1(C)CCC(C)(C)c2cc(NC(=O)c3ccc(C(=O)O)cc3)ccc21 [crystal that melts at 193° C., 4-[(5,6,7,8-tetrahydro-5,5,8,8-tetramethyl-2-naphthalenyl)carbamoyl]benzoic acid, reference compound] | – | – | – | crystalline form readily occurs transition by physical impact | – |
| CC1(C)CCC(C)(C)c2cc(NC(=O)c3ccc(C(=O)O)cc3)ccc21 [crystal that melts at 233° C., 4-[(5,6,7,8-tetrahydro-5,5,8,8-tetramethyl-2-naphthalenyl)carbamoyl]benzoic acid] | – | – | – | high stability | high stability |
